Measurements: the supplement of paper PMC10307832

compound: CC(C)(C)c1cc(NC(=O)Nc2ccc(-c3cn4c(n3)sc3cc(OCCN5CCOCC5)ccc34)cc2)no1 [Quizartinib] + NC(=O)Nc1cc(-c2cccc(F)c2)sc1C(=O)N[C@H]1CCCNC1 [AZD7762] (partner 0.2 µM); assay: relative viability (nuclei count vs DMSO), 5 days (fraction); higher = more cells survive; conditions: first compound 0.1 µM
In short: (§1)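 Lung cancer cell lines in 1536-well plates got either a single drug or a fixed anchor-drug dose together with five library-drug doses (not always all listed) in √10 steps, by pin tool, on the day after seeding. Nuclei were counted after 5 days, and relative viability is the treated-to-vehicle ratio of nuclei counts. Values are medians of duplicate plates.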

Row | Cell Line | relative viability
1 | NCI-H596 | 1.32
2 | NCI-H1666 | 0.99
3 | NCI-H23 | 0.25
4 | NCI-H838 | 0.902
5 | NCI-H322M | 0.705
6 | NCI-H1793 | 0.259
7 | NCI-H441 | 1.1
8 | NCI-H727 | 0.759
9 | 201T | 0.646
10 | NCI-H1755 | 0.434
11 | NCI-H2085 | 0.596
12 | NCI-H460 | 0.621

compound: CC(C)(C)c1cc(NC(=O)Nc2ccc(-c3cn4c(n3)sc3cc(OCCN5CCOCC5)ccc34)cc2)no1 [Quizartinib] + COc1cc2c(Oc3ccc(NC(=O)C4(C(=O)Nc5ccc(F)cc5)CC4)cc3F)ccnc2cc1OCCCN1CCOCC1 [Foretinib] (partner 0.25 µM); assay: as above; conditions: first compound 0.001 µM
In short: as §1

Row | Cell Line | relative viability
13 | NCI-H2347 | 0.655
14 | LCLC-103H | 0.786
15 | ABC-1 | 0.64
16 | NCI-H1734 | 0.693
17 | HCC-78 | 0.53
18 | NCI-H1975 | 0.936
19 | NCI-H1944 | 0.854
20 | NCI-H2126 | 1
21 | EMC-BAC-2 | 0.938
22 | NCI-H2170 | 0.932
23 | NCI-H358 | 0.613
24 | CAL-12T | 0.781
25 | LK-2 | 1.29
26 | HOP-62 | 0.907
27 | PC-14 | 0.844
28 | NCI-H1993 | 0.806
29 | NCI-H2405 | 0.96
30 | NCI-H3122 | 0.919
31 | LOU-NH91 | 0.967
32 | NCI-H596 | 0.925
33 | NCI-H1666 | 0.749
34 | NCI-H838 | 0.991
35 | NCI-H322M | 0.86
36 | NCI-H1793 | 0.728
37 | NCI-H441 | 1.23
38 | NCI-H727 | 0.71
39 | 201T | 1.07
40 | NCI-H1755 | 0.826
41 | NCI-H2085 | 0.868
42 | NCI-H460 | 0.916

same assay, conditions: first compound 0.003162 µM

Row | Cell Line | relative viability
43 | NCI-H2347 | 0.963
44 | LCLC-103H | 0.7
45 | ABC-1 | 0.993
46 | NCI-H1734 | 0.776
47 | HCC-78 | 0.57
48 | HCC-15 | 0.978
49 | HARA | 0.832
50 | NCI-H1975 | 0.89
51 | NCI-H1944 | 0.825
52 | NCI-H2126 | 1.12
53 | EMC-BAC-2 | 1.02
54 | NCI-H2170 | 0.956
55 | NCI-H358 | 0.796
56 | CAL-12T | 1.1
57 | HOP-62 | 1.09
58 | PC-14 | 0.893
59 | NCI-H1993 | 0.809

Row | Cell Line | relative viability
60 | NCI-H2405 | 1.04
61 | NCI-H3122 | 0.918
62 | A-427 | 0.988
63 | LOU-NH91 | 0.903
64 | NCI-H596 | 0.816
65 | NCI-H1666 | 0.925
66 | NCI-H23 | 1.03
67 | NCI-H838 | 1.01
68 | NCI-H322M | 0.939
69 | NCI-H1793 | 0.59
70 | NCI-H441 | 0.923
71 | NCI-H727 | 0.877
72 | 201T | 0.998
73 | NCI-H1755 | 0.881
74 | NCI-H2085 | 0.853
75 | NCI-H460 | 0.961

same assay, conditions: first compound 0.01 µM

Row | Cell Line | relative viability
76 | NCI-H2347 | 0.638
77 | LCLC-103H | 0.8
78 | ABC-1 | 1.1
79 | NCI-H1734 | 0.933
80 | HCC-78 | 0.573
81 | HCC-15 | 0.979
82 | HARA | 0.952
83 | NCI-H1975 | 0.869
84 | NCI-H1944 | 0.938
85 | NCI-H2126 | 1.2
86 | EMC-BAC-2 | 1.14
87 | NCI-H2170 | 1.08
88 | NCI-H358 | 0.634
89 | CAL-12T | 1.14
90 | LK-2 | 1.03
91 | HOP-62 | 1.22
92 | PC-14 | 0.973

Row | Cell Line | relative viability
93 | NCI-H1993 | 0.793
94 | NCI-H2405 | 1.03
95 | NCI-H3122 | 0.988
96 | A-427 | 0.97
97 | LOU-NH91 | 0.906
98 | NCI-H596 | 0.949
99 | NCI-H1666 | 1.03
100 | NCI-H23 | 0.975
101 | NCI-H838 | 0.99
102 | NCI-H322M | 0.939
103 | NCI-H1793 | 0.797
104 | NCI-H441 | 1.13
105 | NCI-H727 | 0.838
106 | 201T | 1.09
107 | NCI-H1755 | 0.93
108 | NCI-H2085 | 1.2
109 | NCI-H460 | 1.03

same assay, conditions: first compound 0.03162 µM

Row | Cell Line | relative viability
110 | NCI-H2347 | 0.892
111 | LCLC-103H | 0.788
112 | ABC-1 | 0.929
113 | NCI-H1734 | 0.862
114 | HCC-78 | 0.513
115 | HARA | 0.942
116 | NCI-H1975 | 0.843
117 | NCI-H1944 | 0.888
118 | NCI-H2126 | 1.22
119 | NCI-H2170 | 0.981
120 | NCI-H358 | 0.438
121 | CAL-12T | 0.935
122 | LK-2 | 1.33
123 | HOP-62 | 1.07
124 | PC-14 | 0.953
125 | NCI-H1993 | 0.81

Row | Cell Line | relative viability
126 | NCI-H2405 | 1.05
127 | NCI-H3122 | 0.953
128 | A-427 | 1.04
129 | LOU-NH91 | 0.902
130 | NCI-H596 | 0.903
131 | NCI-H1666 | 0.783
132 | NCI-H23 | 0.934
133 | NCI-H838 | 0.938
134 | NCI-H322M | 0.851
135 | NCI-H1793 | 0.759
136 | NCI-H727 | 0.801
137 | 201T | 0.942
138 | NCI-H1755 | 0.956
139 | NCI-H2085 | 0.873
140 | NCI-H460 | 0.652

same assay, conditions: first compound 0.1 µM

Row | Cell Line | relative viability
141 | NCI-H2347 | 0.938
142 | LCLC-103H | 0.995
143 | ABC-1 | 0.846
144 | NCI-H1734 | 0.802
145 | HCC-78 | 0.558
146 | HCC-15 | 0.952
147 | HARA | 0.913
148 | NCI-H1975 | 1.14
149 | NCI-H1944 | 0.795
150 | NCI-H2126 | 1.23
151 | EMC-BAC-2 | 1.01
152 | NCI-H2170 | 1.12
153 | NCI-H358 | 0.642
154 | CAL-12T | 1.22
155 | LK-2 | 1.43
156 | HOP-62 | 1.09
